Test results reported in US8080529B2, “Macrolides with anti-inflammatory activity” (Glaxo Group Limited, priority 2005, dated 2011).
Like-named read-outs stand apart in the source and are kept apart here.

Key:
Assay type in all cases: cell-based
[1] = system: Hep G2; assay: Cytotoxicity assay (MTT), Hep G2 cell line; conditions: 24 h
Experimental: (§1) To determine whether the anti-inflammatory activity of the test compounds was due to observed inhibition of cytokine production and inhibition of proliferation in vitro, and was not a consequence of cellular cytotoxicity, measurement of succinate dehydrogenase activity in living cells was performed. Cells were cultured for 24 h in RPM medium as described above at 37° C. the presence of the test compounds at concentrations of 50 μM and 12.5 μM. MTT [3-(4,5-dimethylthiazole-2-yl)-2,5-diphenyl tetrazolium bromide] (Promega, USA), a detection reagent, was then added and the cultures were incubated for 0.5-2 h. The amount of MTT-Formazan produced was determined using a spectrophotometer at 490 nm (Mosmann, J. Immunol. Methods, 1983, 65: 55-63).
(§2) The percentage of inhibition of cell growth was calculated using the following formula: % inhibition of cell growth=[…].

[2] = system: A549; assay: Cytotoxicity assay (MTT), A549 cell line; conditions: 24 h
Experimental: as §1, §2

[3] = system: IL-1α; assay: Inhibition of IL-1 production by stimulated human peripheral blood leukocytes in vitro; conditions: Homo sapiens, Leukocyte, read-out: Percentage of inhibition of IL-1α production
[4] = system: TNF-α; assay: Inhibition of TNF-α production by stimulated human peripheral blood leukocytes in vitro; conditions: Homo sapiens, Leukocyte, read-out: Percentage of inhibition of TNF-α production
Summary of the method: (§3)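 Dextran-sedimented human PBL (3–5×10^6/well) preincubated 2 h at 37 °C with compounds at 50 μM or 10 μM, then stimulated overnight with LPS 2 μg/mL, PMA 1 μg/mL or zymosan 120 μg/mL. Supernatant cytokines quantified by sandwich ELISA; % inhibition versus stimulated untreated controls.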

[5] = system: IL-8; assay: Inhibition of IL-8 production by stimulated human peripheral blood leukocytes in vitro; conditions: Homo sapiens, Leukocyte, read-out: Percentage of inhibition of IL-8 production
Summary of the method: as §3

[6] = system: IL-6; assay: Inhibition of IL-6 production by stimulated human peripheral blood leukocytes in vitro; conditions: Homo sapiens, Leukocyte, read-out: Percentage of inhibition of IL-6 production
Summary of the method: as §3

Row | Structure (SMILES) | Percentage of inhibition of cell growth ([1]; 12.5 μM) | Percentage of inhibition of cell growth ([1]; 50 μM) | Percentage of inhibition of cell growth ([2]; 12.5 μM) | Percentage of inhibition of cell growth ([2]; 50 μM) | inhibition at 10 µM ([3]; LPS-stimulated PBL) | inhibition at 10 µM ([3]; PMA-stimulated PBL) | inhibition at 10 µM ([3]; zymosan-stimulated PBL) | inhibition at 50 µM ([3]; LPS-stimulated PBL) | inhibition at 50 µM ([3]; PMA-stimulated PBL) | inhibition at 50 µM ([3]; zymosan-stimulated PBL) | inhibition at 10 µM ([4]; LPS-stimulated PBL) | inhibition at 10 µM ([4]; PMA-stimulated PBL) | inhibition at 10 µM ([4]; zymosan-stimulated PBL) | inhibition at 50 µM ([4]; LPS-stimulated PBL) | inhibition at 50 µM ([4]; PMA-stimulated PBL) | inhibition at 50 µM ([4]; zymosan-stimulated PBL) | inhibition at 10 µM ([5]; LPS-stimulated PBL) | inhibition at 10 µM ([5]; PMA-stimulated PBL) | inhibition at 10 µM ([5]; zymosan-stimulated PBL) | inhibition at 50 µM ([5]; LPS-stimulated PBL) | further results
1 | CC[C@H]1OC(=O)[C@H](C)[C@@H](O[C@H]2C[C@@](C)(OC)[C@@H](OC(=O)CCN(C)C3CCCCC3)[C@H](C)O2)[C@H](C)[C@@H](O[C@@H]2O[C@H](C)C[C@H](N(C)C)[C@H]2O)[C@](C)(OC)C[C@@H](C)C(=O)N[C@H](C)[C@@H](O)[C@]1(C)O [Example 25] | 10% | 8% | 8% | 4% | 22% | 58% | 82% | 61% | 86% | 93% | 0% | 41% | 19% | 71% | 91% | 88% | 0% | 0% | 17% | 45% | inhibition at 50 µM ([5]; PMA-stimulated PBL): 34%; inhibition at 50 µM ([5]; zymosan-stimulated PBL): 63%; inhibition at 10 µM ([6]; LPS-stimulated PBL): 4%; inhibition at 10 µM ([6]; PMA-stimulated PBL): 51%; inhibition at 10 µM ([6]; zymosan-stimulated PBL): 51%; inhibition at 50 µM ([6]; LPS-stimulated PBL): 62%; inhibition at 50 µM ([6]; PMA-stimulated PBL): 87%; inhibition at 50 µM ([6]; zymosan-stimulated PBL): 86%
2 | CC[C@H]1OC(=O)[C@H](C)[C@@H](O[C@H]2C[C@@](C)(OC)[C@@H](OC(=O)CCN3CCN(CC4CCCN(C)C4)CC3)[C@H](C)O2)[C@H](C)[C@@H](O[C@@H]2O[C@H](C)C[C@H](N(C)C)[C@H]2O)[C@](C)(OC)C[C@@H](C)C(=O)N[C@H](C)[C@@H](O)[C@]1(C)O (stereo partly shown) [Example 33] | 5% | 4% | 0% | 0% | 28% | 33% | 55% | 42% | 75% | 85% | 16% | 23% | 16% | 50% | 74% | 53% | 0% | 0% | 0% | 11% | inhibition at 50 µM ([5]; PMA-stimulated PBL): 10%; inhibition at 50 µM ([5]; zymosan-stimulated PBL): 40%; inhibition at 10 µM ([6]; LPS-stimulated PBL): 8%; inhibition at 10 µM ([6]; PMA-stimulated PBL): 9%; inhibition at 10 µM ([6]; zymosan-stimulated PBL): 13%; inhibition at 50 µM ([6]; LPS-stimulated PBL): 30%; inhibition at 50 µM ([6]; PMA-stimulated PBL): 49%; inhibition at 50 µM ([6]; zymosan-stimulated PBL): 40%
3 | CC[C@H]1OC(=O)[C@H](C)[C@@H](O[C@H]2C[C@@](C)(OC)[C@@H](OC(=O)CCN3CC(C)CC(C)C3)[C@H](C)O2)[C@H](C)[C@@H](O[C@@H]2O[C@H](C)C[C@H](N(C)C)[C@H]2O)[C@](C)(OC)C[C@@H](C)C(=O)N[C@H](C)[C@@H](O)[C@]1(C)O (stereo partly shown) [Example 37] | 3% | 19% | 1% | 0% | 60% | 14% | 49% | 69% | 25% | 98% | 15% | 28% | 17% | 76% | 45% | 96% | 14% | 17% | 27% | 0% | inhibition at 50 µM ([5]; PMA-stimulated PBL): 10%; inhibition at 50 µM ([5]; zymosan-stimulated PBL): 0%; inhibition at 10 µM ([6]; LPS-stimulated PBL): 20%; inhibition at 10 µM ([6]; PMA-stimulated PBL): 41%; inhibition at 10 µM ([6]; zymosan-stimulated PBL): 21%; inhibition at 50 µM ([6]; LPS-stimulated PBL): 78%; inhibition at 50 µM ([6]; PMA-stimulated PBL): 57%; inhibition at 50 µM ([6]; zymosan-stimulated PBL): 100%
4 | CC[C@H]1OC(=O)[C@H](C)[C@@H](O[C@H]2C[C@@](C)(OC)[C@@H](OC(=O)CCNC3CC3)[C@H](C)O2)[C@H](C)[C@@H](O[C@@H]2O[C@H](C)C[C@H](N(C)C)[C@H]2O)[C@](C)(OC)C[C@@H](C)C(=O)N[C@H](C)[C@@H](O)[C@]1(C)O [Example 40] | 2% | 2% | 0% | 0% | 0% | 0% | 1% | 28% | 0% | 55% | 67% | 55% | 60% | 82% | 77% | 76% | 24% | 31% | 6% | 0% | inhibition at 50 µM ([5]; PMA-stimulated PBL): 12%; inhibition at 50 µM ([5]; zymosan-stimulated PBL): 0%; inhibition at 10 µM ([6]; LPS-stimulated PBL): 7%; inhibition at 10 µM ([6]; PMA-stimulated PBL): 0%; inhibition at 10 µM ([6]; zymosan-stimulated PBL): 0%; inhibition at 50 µM ([6]; LPS-stimulated PBL): 0%; inhibition at 50 µM ([6]; PMA-stimulated PBL): 0%; inhibition at 50 µM ([6]; zymosan-stimulated PBL): 0%
